Point of comparison: `CNc1cc(OC)c(OC)cc1[N+](=O)[O-]`, melting point 147 °C. Against it:
- Oc1ccccc1CCC1NCCS1 (stereo unspecified) — lower, 100 to 102 °C
- Nc1cc(OCc2ccccc2)ccc1NC(=O)c1ccc(C23CC4CC(CC(C4)C2)C3)c(OCc2ccccc2)c1 — higher, 178 °C
- COc1cc2nc(SCc3ncc(C)c(N(C)C)c3Cl)[nH]c2cc1OC — lower, 120 to 122 °C
- COc1cc(F)c(N2CCCC2=O)c(S(N)(=O)=O)c1 — higher, 205 °C
- Cc1ccc(S(=O)(=O)NCCc2cccc(OCCN)c2)cc1 — lower, 128 to 130 °C
- CC(=O)OC1CSC(Oc2cccc(-c3ccncc3)n2)C(OC(C)=O)C1OC(C)=O (stereo unspecified) — lower, 137 °C
- CCOc1cc(CF)nc2nc(S(=O)(=O)Nc3c(Cl)ccc(C)c3Cl)nn12 — higher, 197 to 200 °C
- CC1(C)OC(=O)Nc2ccc(-c3cc(Cl)cc(C#N)c3)cc21 — higher, 256 to 257 °C
- CCOC(=O)C1=C(C)N=C(OC)N(C(=O)OCC)C1c1cccc([N+](=O)[O-])c1 (stereo unspecified) — lower, 61.5 to 64.5 °C
- O=C(O)CCNc1cccc(CNC(=O)C2Cc3ccccc3N2S(=O)(=O)c2ccc(-c3cccc(C(F)(F)F)c3)cc2)c1 (stereo unspecified) — lower, 85 °C
- N#Cc1ccc(C(F)(F)C(F)(F)c2ccccc2)cc1 — lower, 118 to 123 °C
- O=C(Oc1ccccc1)OC1c2ccccc2C(=O)N1c1ccc2ccc(Cl)nc2n1 (stereo unspecified) — higher, 235 °C
- FC(F)(F)Oc1ccc2nc(Cc3cn4ccsc4n3)[nH]c2c1 — higher, 177 to 179 °C
- CCOC(=O)c1cc(O)c2nc(C)c(C)n2c1 — higher, 219 to 221 °C
- CC(C)CNc1ccccc1CS(=O)c1nc2ncccc2[nH]1 (stereo unspecified) — lower, 116 °C
- CCCC[C@H](NC(=O)[C@H](C)Nc1nc2ccccc2s1)C(=O)OC — lower, 99 to 120 °C
- O=C(O)C=Cc1ccc(OCCC(c2ccccc2)(c2ccccc2)c2ccccc2)cc1 — higher, 207 to 209 °C
- O=C(O)COc1ccc(OCCC(c2ccccc2)(c2ccccc2)c2ccccc2)cc1 — lower, 66 to 68 °C
- O=c1[nH]c(=O)n(C2OC(CO)C(O)C2F)cc1C=CBr (stereo unspecified) — lower, 80 to 83 °C
- COc1cccc(-c2ccc3cc(OC)ccc3c2C(=O)c2ccc(O)cc2)c1 — higher, 158 to 159 °C
- CNc1ccc(-c2cc[nH]n2)cc1 — lower, 78 to 86 °C
- CCN(CC)C(=O)Cc1cc(C(C)C)c(O)cc1C — lower, 138 to 139 °C
- Cc1cccc(-n2nc(C)cc2-c2ccnc(N)c2)c1 — lower, 124 to 125 °C
- CNC(=O)Nc1cc(CNc2ncccc2C(=O)OC)ccn1 — lower, 145 to 146 °C
- O=Cc1c(F)cccc1Br — lower, 35 to 37 °C
- CC(CO)(c1ccc(Cl)cc1)N1CCN(c2ccc(CO)c(Cl)c2)CC1 (stereo unspecified) — lower, 126 to 130 °C
- COc1cc2ncnc(N3CCN(c4ccc5c(c4)CCC(=O)N5)CC3)c2cc1OC — higher, 261 to 262 °C
- Cc1ccc(C=O)c(OCc2ccc(OCc3nc(-c4ccccc4)oc3C)cc2)n1 — lower, 114 to 115 °C
- CN1CCN(C2=Cc3ccccc3Sc3cc(Cl)c(Cl)cc32)CC1 — higher, 157 to 159 °C
- COC(C(=O)O)c1ccc(OCc2ccccn2)cc1 (stereo unspecified) — higher, 169 to 170 °C
- Oc1ccc([C@H]2CC[C@H](CCC3OCCO3)CC2)cc1 — higher, 154 °C
- CCOC(=O)c1cnn(-c2ccc(OCC(CC)CC)c(C#N)c2)c1 — lower, 114 to 115 °C
- Cc1nc2cc3c(cc2[nH]1)NC(=O)C3(C)C — higher, > 300 °C
- CCCc1nc2c(N)nc3cc(Br)ccc3c2n1CCCON=C(C)C — higher, 182 to 183 °C
- COCCOc1cc2ncnc(NC3=CC(=O)C(N4CCCCC4)=CC3=O)c2cc1OC — higher, 197 to 200 °C
- C#Cc1ccc(-c2ccc(Br)cc2)cc1 — not separable, 145 to 150 °C
- CC(C)Cc1nc(-c2ccccc2)cnc1O — higher, 205 to 207 °C
- O=C(NC(CCc1ccccc1)c1nnco1)c1ccc2[nH]c(-c3ccncc3)nc2c1 (stereo unspecified) — lower, 103 °C
- CCCCCCCCCCCCCCCCNc1ccc(C(=O)OCC(CO)OC(C)=O)cc1 (stereo unspecified) — lower, 67 °C
- CCOC(=O)c1[nH]c2cc(Cl)cc(Cl)c2c1C(=O)OCC — higher, 167 to 170 °C
- CC(C)C[C@H](O)[C@H](O)[C@@H](N)CC1CCCCC1 — lower, 110 to 111 °C
- CCOC(=O)C1=C(NC(=O)Nc2cc(OC(C)C)c(Cl)cc2F)CCC1 — higher, 166 to 169 °C
- CC(=O)OCc1cn(-c2ccccc2)nc1OCc1ccccc1 — lower, 74 to 75 °C
- CN1CCC[C@H]1COc1ccc(/C=C/C(=O)O)cc1 — higher, 251 °C
- C/C(=C\c1ccc(OC(C)C)cc1Oc1ncc(C(F)(F)F)cc1Cl)C(=O)NS(=O)(=O)NCCc1cccs1 — lower, 130 to 131 °C
- Cc1ccc(Sc2cccc(-c3nc(=O)c4ccccc4s3)n2)cc1 — higher, 177 to 178 °C
- CCCCc1nc2c(c(C)c(C)n3nnnc23)n1CC(C)(C)NS(C)(=O)=O — lower, 75 to 90 °C
- N#Cc1cnn(-c2c(Cl)cc(Cl)cc2Cl)c1C=O — higher, 152 °C
- Cn1ncc2c3[nH]ncc3ccc21 — higher, 180 to 184 °C
- COc1c(C2CCN(CCCCNC(=O)c3ccc(-c4ccc(Cl)s4)nc3)CC2)ccc2c1CCCC2 — higher, 175 to 177 °C
- CCCOc1ccc(COCCN2CCOCC2)cc1-c1nc2c(CCC)nn(C)c2c(=O)[nH]1 — lower, 65 to 66 °C
- CCCOC(=O)c1cc(=O)c(Sc2ccc(OC)cc2)co1 — lower, 91 to 93 °C
- CC1(c2cccc(N)c2)OCCO1 — lower, 75 to 77 °C
- CC(C)(CC(O)(Cn1ccc2c1CCCC2=O)C(F)(F)F)c1cc(S(C)(=O)=O)cc2c1OCC2 (stereo unspecified) — higher, 207 to 208 °C
- Clc1ccc(Cn2cc(CCn3ccnc3)c3ccccc32)cc1 — lower, 78 to 80 °C
- Cc1ccc(C(=O)C(C#N)C#N)cc1 — higher, 163 °C
- COc1ccc2ccc(N3C(=O)c4ccccc4C3OC(=O)Oc3ccccc3)nc2n1 (stereo unspecified) — lower, 145 °C
- CC12CCC3C(CC(O)C4(O)CC(O)CCC34C)C1CCC2=O (stereo unspecified) — higher, 304 to 306 °C
- COc1ccc2c(c1)C(=O)OC21CCN(C)CC1 — lower, 123 to 125 °C
- CCOC(=O)C1COc2c(C(=O)c3ccccc3)cc(Br)cc21 (stereo unspecified) — lower, 100 to 101 °C
- [N-]=[N+]=Nc1nc(-c2ccccc2)nc(-c2ccccc2)n1 — lower, 115 to 117 °C
- CCCC/C(=C\C(=O)O)c1cc(OC)c(O)c2c(CC)cccc12 — lower, 139 to 140 °C
- C=CCNc1c(C(=O)OCC)cnc2cn(C)nc12 — lower, 140 to 143 °C
- C=CCc1c(O)c(C(=O)OC)cc(Cl)c1NC(C)=O — higher, 189 to 190 °C
- CCOC(=O)C(=CNc1ccnn1Cc1ccncc1)C(=O)OCC — lower, 95 to 97 °C
- CNC(=O)c1c(C)nc(C)n1Cc1ccc2oc(-c3ccccc3NS(=O)(=O)C(F)(F)F)c(Br)c2c1 — higher, 208 to 210 °C
- CC(=O)OCCOc1ncnc(NS(=O)(=O)c2ccc(C)cc2)c1C=O — lower, 130 to 144 °C
- COc1cc(CCI)cc2c1OCO2 — lower, 78 to 80 °C
- Cc1cc(C#N)ccc1N1CCCn2c1nc1c(Cl)ccc(C(OCC(F)(F)F)C3CC3)c12 (stereo unspecified) — higher, 207 to 209 °C
- CCS(=O)(=O)CCNc1c(S(C)=O)c(C#N)nn1-c1c(Cl)cc(C(F)(F)F)cc1Cl (stereo unspecified) — lower, 131 to 132 °C
- CCOP(=O)(/C=C/c1cn(-c2ccccc2)nc1OCc1ccc(OCc2nc(-c3ccc(C(=O)O)s3)oc2C)c(OC)c1)OCC — higher, 165 to 166 °C
- CN(C(=O)Cc1ccc(Cl)c(Cl)c1)[C@@H]1CCC(=O)C[C@H]1N1CCCC1 (relative stereo) — higher, 148 to 149 °C
- CC(O)c1cc2ccccc2cn1 (stereo unspecified) — lower, 104 to 106 °C
- CC(=O)N(O)Cc1ccc(OCc2ccccc2)cc1 — lower, 119 to 120 °C
- CCOc1ccc(C(=O)NCc2ccc3c(c2)C(=O)N(C2(C)CCC(=O)NC2=O)C3=O)nn1 (stereo unspecified) — lower, 126 to 128 °C
- COc1cc(COc2nn(-c3ccccc3)cc2C#N)ccc1OCc1nc(-c2ccco2)oc1C — higher, 167 to 168 °C
- O=C(C1CC1)N1CCN(C(=O)c2cc(C(F)(F)F)cc(C(F)(F)F)c2)[C@H](Cc2c[nH]c3ccccc23)C1 — lower, 109 to 114 °C
- COc1cccn2nc(S(=O)(=O)Nc3c(F)cccc3F)nc12 — higher, 254 to 255 °C
- O=C(c1ccc(F)c(F)c1)N1CCCC(c2noc(-c3ccc[nH]3)n2)C1 (stereo unspecified) — higher, 168 °C
- NNS(=O)(=O)c1cccc2cccnc12 — lower, 135 to 137 °C
- COc1cc(Br)nc(C(=O)O)c1OCc1ccccc1 — lower, 134 to 135 °C
- Cc1sc2c(c1C(=O)c1ccc(N(C)C)cc1)CCC2C(=O)O (stereo unspecified) — higher, 171 to 173 °C
- CCOC(=O)c1cnn(C)c1O — lower, 134 to 135 °C
- O=C1CCC(C(=O)OC2c3ccccc3C(=O)N2c2ccc3ccc(Cl)nc3n2)CC1 (stereo unspecified) — higher, 203 °C
- O=Cc1ccc2c(c1)Sc1ccccc1CC2 — lower, 55.5 to 56.5 °C
- O=C1OC(Cc2ccccc2)(Cc2ccccc2)C2CNCCN12 (stereo unspecified) — lower, 132 to 133 °C
- COC(=O)C1=C(CF)NC(C)=C(C(=O)OC(C)C)C1c1cccc([N+](=O)[O-])c1Cl (stereo unspecified) — higher, 156 to 157 °C
- CNc1nnc(-c2ccc3ncn(-c4cccc(OC(F)(F)F)c4)c3c2)o1 — higher, 226 to 227 °C
- O=Cc1cccnc1S(=O)(=O)c1ccc(Cl)cc1 — lower, 100 to 101 °C
- CC(C)(C)OC(=O)c1ccc(C#Cc2cnc3nc(N)nc(O)c3c2)cc1 — higher, > 260 °C
- Cc1ncncc1C(=O)Nc1ccc(-n2nc(C(F)(F)F)cc2C2CC2)cc1 — higher, 163 to 166 °C
- COc1ccc2c(c1)C13CCN(C#N)C(C2)C1CCC(=O)C3 (stereo unspecified) — higher, 211 to 214 °C
- CCCCN1CCN(Cc2nc(-c3ccc4c(c3)Nc3ccccc3S4)cs2)CC1 — higher, 188 to 190 °C
- Clc1ccc2c(c1)C(c1ccccc1Cl)=NCc1c[nH]cc1-2 — higher, 204 to 206 °C
- Cc1nc(-c2cc3cc(OCCNC[C@H](O)c4cccc(Cl)c4)ccc3o2)no1 — lower, 88 to 92 °C
- CNS(=O)(=O)c1ccc(-c2cnc3[nH]c(CCc4cc(OC)ccn4)nc3c2)cc1 — higher, 225 to 227 °C
- Cc1c2c(cc3ccc(=O)oc13)C=CC(C)(C)O2 — lower, 105 to 107 °C
- CC(C)C(NC(=O)OCc1cccnc1)C(=O)NC(Cc1ccccc1)C(O)C(Cc1ccccc1)NC(=O)C(NC(=O)OCc1cccnc1)C(C)C (stereo unspecified) — higher, 177 to 178 °C
- Cc1ncc2n1-c1ccc(Cl)cc1N(c1ccccc1)C(=O)C2 — higher, 276 to 278 °C
- CC(C)(C)OC(=O)N1CCC(c2cc(C(F)(F)F)ccc2N)CC1 — lower, 120 °C

From a melting point compilation (Tetko et al.; mined from patent text by program, amines drawn as free bases though some values may be those of a salt)
